Read-outs that look alike come from different tables or passages of the source.
How the values were obtained:
[1] = test system: common mosquito (Culex pipiens pallens); assay: Inhibition of emergence of last instar larvae of common mosquito (Test Example 1); format: in vivo
Experimental: An emulsifiable concentrate prepared according to Formulation Example 1 was diluted with water to make a designed concentration. The dilution (0.7 ml) was added to 100 ml of distilled water. Last instar larvae of common mosquito (Culex pipiens pallens) were released therein and reared for 7 days until their emergence, and the concentration for 50% inhibition (IC50) was examined.

[2] = test system: housefly (Musca domestica); assay: Inhibition test on housefly larvae reared in artificial culture until pupation, pupae examined (Test Example 2); format: in vivo
Experimental: Powdered animal feed (2 g) was thoroughly mixed with bran (14 g). An emulsifiable concentrate prepared according to Formulation Example 1 was diluted with water to a designed concentration, and the dilution was added to the above mixture. The resultant mixture was stirred well to make an artificial culture. Thirty larvae of housefly (Musca domestica) were reared therein until their pupation. The obtained pupae were placed into a plastic cup, and the concentration for 50% inhibition was examined in the same manner as in Test Example 1.

[3] = last instar larvae, 0.7 ml dilution of emulsifiable concentrate added to 100 ml distilled water, reared for 7 days until emergence
[4] = thirty larvae reared in artificial culture (powdered animal feed 2 g, bran 14 g, diluted emulsifiable concentrate) until pupation, pupae placed into plastic cup

COC(C)(C)CCCC(C)CC=CC(C)=CC(=O)OC(C)C (centres unmarked) [(A), methoprene]
concentration for 50% inhibition (IC50) ([1]; 168 h): 0.00018 ppm
concentration for 50% inhibition (IC50) [2]: 2.3 ppm

c1ccc(Oc2ccc(OCCCc3ccccn3)cc2)cc1 [(B)]
concentration for 50% inhibition (IC50) [1, 3]: 0.00013 ppm
concentration for 50% inhibition (IC50) [2, 4]: > 3 ppm

Cn1nccc1COc1ccc(Oc2ccccc2)cc1 [(C)]
concentration for 50% inhibition (IC50) [2, 4]: > 3 ppm

c1ccc(Oc2ccc(OCCn3cccn3)cc2)cc1 [(D)]
concentration for 50% inhibition (IC50) [1, 3]: 0.00023 ppm

Clc1cccc(Oc2ccc(OCCn3cccn3)cc2)c1 [(E)]
concentration for 50% inhibition (IC50) [2, 4]: 1.0 ppm

c1ccc(Oc2ccc(OCCCn3cccn3)cc2)cc1 [(F)]
concentration for 50% inhibition (IC50) [1, 3]: 0.0007 ppm

Clc1cc(Cl)cc(Oc2ccc(OCCCn3cccn3)cc2)c1 [(G)]
concentration for 50% inhibition (IC50) [2, 4]: 1.8 ppm

Fc1cc(F)cc(Oc2ccc(OCCCn3cccn3)cc2)c1 [Pyrazole compound (I), 1-{3-[4-(3,5-difluorophenoxy)phenoxy]propyl}pyrazole]
concentration for 50% inhibition (IC50) [1, 3]: 0.000009 ppm
concentration for 50% inhibition (IC50) [2, 4]: 0.14 ppm
